As a reminder, the Ki is the dissociation constant of the complex between target and ligand, obtained from inhibition or displacement. A word on the IC50: it is the concentration at which inhibition is half-maximal. Low readings indicate inhibition by little substance, high ones a need for much substance.

Each structure is given as a SMILES string. Where only a bound is given, the exact number is not on record here.

For one experiment, the target named is T1, Neuropeptide Y receptor type 1 (Homo sapiens, UniProt P25929).
T1 sequence (P25929 whole entry): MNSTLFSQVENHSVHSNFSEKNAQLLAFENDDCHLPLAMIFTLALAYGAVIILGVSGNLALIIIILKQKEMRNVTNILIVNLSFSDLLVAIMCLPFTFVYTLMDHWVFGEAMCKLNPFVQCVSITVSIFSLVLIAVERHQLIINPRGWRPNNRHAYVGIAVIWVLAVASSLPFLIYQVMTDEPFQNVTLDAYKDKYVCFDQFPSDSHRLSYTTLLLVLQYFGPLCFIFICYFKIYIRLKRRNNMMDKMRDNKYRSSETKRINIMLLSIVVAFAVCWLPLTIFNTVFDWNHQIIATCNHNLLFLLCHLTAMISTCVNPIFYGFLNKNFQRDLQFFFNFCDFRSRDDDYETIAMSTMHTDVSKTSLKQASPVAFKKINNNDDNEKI
As to the kind of experiment: Compound was tested for binding affinity against neuropeptide Y1 (NPY1) receptor from SK-N-MC membranes using [125I]PYY as radioligand.
`Nc1ccc([S+]([O-])c2cc(N)c3ncccc3c2[N+](=O)[O-])cc1` (configuration not stated): the Ki came to 1.25 µM. `Nc1ccc(S(=O)(=O)c2ccc3ncccc3c2[N+](=O)[O-])cc1` had a Ki greater than 10 µM. For the compound `Cc1cc(S(=O)(=O)c2ccccc2)c([N+](=O)[O-])c2cccnc12`, the Ki was greater than 10 µM. `Nc1ccc(Sc2cc(N)c3ncccc3c2[N+](=O)[O-])cc1` came in with a Ki greater than 10 µM. `Nc1ccc(S(=O)(=O)c2cc(N)c3ncccc3c2)cc1` gave a Ki greater than 10 µM. `Nc1ccc(S(=O)(=O)c2cc(N)c3ncccc3c2N)cc1` returned a Ki greater than 10 µM. Still for that read-out and setting: next, `CNc1cc(S(=O)(=O)c2ccccc2)c([N+](=O)[O-])c2cccnc12`: greater than 10 µM; `Nc1ccc(S(=O)(=O)c2cc(N)c3ncccc3c2[N+](=O)[O-])cc1`: 0.282 µM; `CS(=O)(=O)c1cc(N)c2ncccc2c1[N+](=O)[O-]`: greater than 10 µM.

`Nc1cc(NS(=O)(=O)c2ccccc2)c([N+](=O)[O-])c2cccnc12` had a Ki greater than 10 µM.

The target of another experiment is T2, Neuropeptide Y receptor type 2 (Rattus norvegicus, UniProt Q9ERC0).
T2 sequence (Q9ERC0 whole entry): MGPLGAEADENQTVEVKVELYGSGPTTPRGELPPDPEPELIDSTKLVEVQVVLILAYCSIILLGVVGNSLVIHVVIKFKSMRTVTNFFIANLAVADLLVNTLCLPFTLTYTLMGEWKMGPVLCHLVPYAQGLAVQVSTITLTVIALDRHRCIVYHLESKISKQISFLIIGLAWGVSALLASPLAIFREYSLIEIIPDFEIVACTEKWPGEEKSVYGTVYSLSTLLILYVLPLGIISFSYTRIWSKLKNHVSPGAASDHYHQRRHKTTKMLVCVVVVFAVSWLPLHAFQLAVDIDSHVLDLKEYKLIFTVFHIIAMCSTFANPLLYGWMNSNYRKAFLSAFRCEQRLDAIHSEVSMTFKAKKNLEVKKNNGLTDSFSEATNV
Nature of the experiment: Compound was tested for binding affinity against neuropeptide Y2 (NPY2) receptor from rat hippocampi. Format: tissue-based, Hippocampus.
The compound `CC(C)c1ccccc1S(=O)(=O)c1cc(N)c2ncccc2c1[N+](=O)[O-]` gave an IC50 of 10 µM. Consider `Nc1ccc(S(=O)(=O)c2cc(N)c3ncccc3c2[N+](=O)[O-])cc1`, for which the Ki was greater than 10 µM.

For the origin of these results see ChEMBL document CHEMBL1129132, “8-amino-6-(arylsulphonyl)-5-nitroquinolines: novel nonpeptide neuropeptide Y1 receptor antagonists” (Bioorg Med Chem Lett, 1996).
